{"source": "patent US10167262B2", "about": "“Herbicidal substituted 3-arylpyrazoles” (FMC CORPORATION, priority 2014, dated 2019)", "experiment_in_all_cases": "Test E pre-/postemergence greenhouse test, plant response rating 0-100", "assay_type_in_all_cases": "in vivo", "key": {"[1]": {"tested_on": "fall panicum (Panicum dichotomiflorum)", "settings": "Panicum dichotomiflorum, post-emergence, Postemergence, scale 0 to 100", "method_in_brief": "(§1)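 Ratings (0 no effect to 100 complete control) came from visual comparison with untreated controls 14 to 21 days after treatment. Compounds in a surfactant-containing non-phytotoxic solvent were applied preemergence to seeded silt loam and postemergence to plants at the 1- to 4-leaf stage.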"}, "[2]": {"tested_on": "field bindweed (Convolvulus arvensis)", "settings": "scale 0 to 100", "method_in_brief": "as §1"}, "[3]": {"tested_on": "kochia (Kochia scoparia)", "settings": "Preemergence, scale 0 to 100", "method_in_brief": "as §1"}, "[4]": {"tested_on": "lambsquarters (Chenopodium album)", "settings": "Preemergence, scale 0 to 100", "method_in_brief": "as §1"}, "[5]": {"tested_on": "nightshade (eastern black nightshade, Solanum ptycanthum)", "settings": "Preemergence, scale 0 to 100", "method_in_brief": "as §1"}, "[6]": {"tested_on": "ragweed (common ragweed, Ambrosia elatior)", "settings": "Preemergence, scale 0 to 100", "method_in_brief": "as §1"}, "[7]": {"tested_on": "smartweed (ladysthumb smartweed, Polygonum persicaria)", "settings": "Postemergence, 250 g ai/ha; scale 0 to 100"}, "[8]": {"tested_on": "velvetleaf (Abutilon theophrasti)", "settings": "Preemergence, scale 0 to 100", "method_in_brief": "as §1"}, "[9]": {"tested_on": "morningglory (Ipomoea coccinea)", "settings": "Preemergence, scale 0 to 100"}, "[10]": {"tested_on": "smartweed (ladysthumb smartweed, Polygonum persicaria)", "settings": "Preemergence, scale 0 to 100"}}}
{"smiles": "Cn1cc(C(=O)c2ccccc2)c(-c2cc(Cl)cc(Cl)c2)n1", "note": "[Compound 54, [3-(3,5-dichlorophenyl)-1-methyl-1H-pyrazol-4-yl]phenylmethanone]", "values": [{"measurement": "pest or weed control at 31 g/ha", "setting": "[1]; 31 g ai/ha", "result": 0, "unit": "%"}, {"measurement": "pest or weed control at 62 g/ha", "setting": "[1]; 62 g ai/ha", "result": 0, "unit": "%"}, {"measurement": "pest or weed control at 125 g/ha", "setting": "[1]; 125 g ai/ha", "result": 0, "unit": "%"}, {"measurement": "pest or weed control at 250 g/ha", "setting": "[1]; 250 g ai/ha", "result": 0, "unit": "%"}, {"measurement": "pest or weed control at 16 g/ha", "setting": "[2]; Convolvulus arvensis, post-emergence, Postemergence, 16 g ai/ha", "result": 0, "unit": "%"}, {"measurement": "pest or weed control at 31 g/ha", "setting": "[2]; Convolvulus arvensis, post-emergence, Postemergence, 31 g ai/ha", "result": 0, "unit": "%"}, {"measurement": "pest or weed control at 62 g/ha", "setting": "[2]; Convolvulus arvensis, post-emergence, Postemergence, 62 g ai/ha", "result": 0, "unit": "%"}, {"measurement": "pest or weed control at 125 g/ha", "setting": "[2]; Convolvulus arvensis, post-emergence, Postemergence, 125 g ai/ha", "result": 0, "unit": "%"}, {"measurement": "pest or weed control at 250 g/ha", "setting": "[2]; Convolvulus arvensis, post-emergence, Postemergence, 250 g ai/ha", "result": 0, "unit": "%"}, {"measurement": "pest or weed control at 1000 g/ha", "setting": "[2]; Convolvulus arvensis, pre-emergence, Preemergence, 1000 g ai/ha", "result": 0, "unit": "%"}, {"measurement": "Field Bindweed plant response rating", "setting": "[2]; Preemergence, 125 g ai/ha", "result": 0}, {"measurement": "Field Bindweed plant response rating", "setting": "[2]; Preemergence, 250 g ai/ha", "result": 0}, {"measurement": "Kochia plant response rating", "setting": "[3]; 125 g ai/ha", "result": 0}, {"measurement": "Kochia plant response rating", "setting": "[3]; 250 g ai/ha", "result": 28}, {"measurement": "Plant response rating, Kochia", "setting": "[3]; 1000 g ai/ha", "result": 97}, {"measurement": "Lambsquarters plant response rating", "setting": "[4]; 125 g ai/ha", "result": 68}, {"measurement": "Lambsquarters plant response rating", "setting": "[4]; 250 g ai/ha", "result": 86}, {"measurement": "Plant response rating, Lambsquarters", "setting": "[4]; 1000 g ai/ha", "result": 99}, {"measurement": "Nightshade plant response rating", "setting": "[5]; 125 g ai/ha", "result": 0}, {"measurement": "Nightshade plant response rating", "setting": "[5]; 250 g ai/ha", "result": 0}, {"measurement": "Ragweed plant response rating", "setting": "[6]; 125 g ai/ha", "result": 35}, {"measurement": "Ragweed plant response rating", "setting": "[6]; 250 g ai/ha", "result": 62}, {"measurement": "Plant response rating, Smartweed", "setting": "[7]", "result": 0}, {"measurement": "Velvetleaf plant response rating", "setting": "[8]; 125 g ai/ha", "result": 87}, {"measurement": "Velvetleaf plant response rating", "setting": "[8]; 250 g ai/ha", "result": 78}, {"measurement": "Morningglory plant response rating", "setting": "[9]; 125 g ai/ha", "result": 7}, {"measurement": "Morningglory plant response rating", "setting": "[9]; 250 g ai/ha", "result": 12}, {"measurement": "Smartweed plant response rating", "setting": "[10]; 125 g ai/ha", "result": 0}, {"measurement": "Smartweed plant response rating", "setting": "[10]; 250 g ai/ha", "result": 0}]}
